Among the data in PubChem BioAssay (NCI) are GI50 and TGI values, retold here.

The GI50 is the concentration giving 50% growth inhibition. The term TGI denotes the concentration at which net growth stops. Higher therefore signals lower sensitivity of the cells.

Among the test systems are ACHN renal; CCRF-CEM leukemia; NCI-H23 lung; MALME-3M melanoma; OVCAR-3 ovarian; M14 melanoma; HT29 colon; 786-0 renal; SF-539 CNS; UACC-62 melanoma.
What all share (assay): DTP human tumour cell line panel, 48 h

“And” between values parts separate entries of the source, which are not always exact repeats. Equal values may be shown once.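 Cells were grown in 96-well plates and exposed to each compound for 48 hours at five concentrations; endpoints were interpolated linearly between bracketing concentrations, or set to the highest concentration if not reached. Here, GI50 denotes the concentration required for 50% inhibition of growth. TGI denotes the concentration required for complete inhibition of growth.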 Some results are limits rather than exact numbers.

For `COCCOCCOCc1n(Cc2ccc3ccccc3c2)c2ccccc2[n+]1Cc1ccc2ccccc2c1`, the GI50 was 2.16 µM in the experiment on ACHN renal; 0.488 µM with CCRF-CEM leukemia; 0.392 µM with NCI-H23 lung; 0.351 µM in the experiment on MALME-3M melanoma; 0.322 µM with OVCAR-3 ovarian; 0.491 µM in the experiment on M14 melanoma. Further, the concentration for 50% growth inhibition (GI50) with HT29 colon is 0.321 µM; with 786-0 renal, 1.31 µM; in the experiment with SF-539 CNS it was 0.587 µM; in the experiment on UACC-62 melanoma, 0.329 µM. Further, the TGI was 5.37 µM in the experiment with ACHN renal; 2.29 µM with CCRF-CEM leukemia; 1.73 µM in the experiment with NCI-H23 lung; 1.38 µM with MALME-3M melanoma; 1.48 µM in the experiment with OVCAR-3 ovarian; 1.99 µM with M14 melanoma. The concentration for total growth inhibition (TGI) in the experiment on HT29 colon was determined as 1.34 µM; with 786-0 renal, 2.65 µM; with SF-539 CNS, 2.01 µM; with UACC-62 melanoma, 1.45 µM.
Turning to `N#Cc1ccc(/C=C(/C(=O)c2ccccc2)c2ccccc2)cc1`, the total growth inhibition concentration (TGI) was 33.1 µM in the experiment with ACHN renal; more than 29.1 µM in the experiment with CCRF-CEM leukemia; 35.2 µM in the experiment with NCI-H23 lung; 29.1 µM with MALME-3M melanoma; 48.4 µM with OVCAR-3 ovarian; 27.8 µM with M14 melanoma. Besides, the total growth inhibition concentration (TGI) with HT29 colon was determined as 22.1 µM; in the experiment with 786-0 renal, 15.5 µM; in the experiment with SF-539 CNS, 42 µM; with UACC-62 melanoma it was 31.2 µM.
In the case of `CCOC(=O)Nc1nc2ccccc2[nH]1`, the GI50 in the experiment on ACHN renal is 6.56 µM; with CCRF-CEM leukemia, 3.6 µM and 4.41 µM; in the experiment with NCI-H23 lung, 8.17 µM and > 21.9 µM; in the experiment with MALME-3M melanoma, 5.18 µM; with OVCAR-3 ovarian, 4.09 µM and 2.19 µM; in the experiment on M14 melanoma, 3.48 µM and 3.43 µM. For the same compound, the GI50 with HT29 colon was 3.96 µM and 3.99 µM; with 786-0 renal, 7.37 µM; in the experiment on SF-539 CNS, 2.63 µM and 2.92 µM; with UACC-62 melanoma it was 5.38 µM and 4.46 µM. For the same compound, the TGI is more than 100 µM in the experiment with ACHN renal; more than 100 µM in the experiment on CCRF-CEM leukemia; more than 100 µM in the experiment on NCI-H23 lung; more than 100 µM with MALME-3M melanoma; 20.4 µM and 5.61 µM in the experiment on OVCAR-3 ovarian; more than 100 µM with M14 melanoma. Also, the TGI in the experiment with HT29 colon was more than 100 µM; in the experiment on 786-0 renal, more than 100 µM; with SF-539 CNS, 9.69 µM and > 32.1 µM; in the experiment with UACC-62 melanoma it was more than 100 µM.
`Cc1cc(C(=O)Nc2n[nH]c3ccccc23)n[nH]1`: the GI50 in the experiment on ACHN renal, with CCRF-CEM leukemia, with NCI-H23 lung, with MALME-3M melanoma, with OVCAR-3 ovarian and in the experiment on M14 melanoma was more than 100 µM throughout. Also, the GI50 with HT29 colon, with 786-0 renal, with SF-539 CNS and in the experiment on UACC-62 melanoma was more than 100 µM each time. In addition, the TGI in the experiment on ACHN renal, in the experiment with CCRF-CEM leukemia, in the experiment on NCI-H23 lung, in the experiment with MALME-3M melanoma, in the experiment on OVCAR-3 ovarian and in the experiment on M14 melanoma was more than 100 µM each time. The concentration for total growth inhibition (TGI) in the experiment with HT29 colon, in the experiment with 786-0 renal, in the experiment on SF-539 CNS and with UACC-62 melanoma was more than 100 µM in each case.
On to `CC[C@@]1(OC(=O)C(N)CCCCN)C(=O)OCc2c1cc1n(c2=O)Cc2cc3ccccc3nc2-1` (stereo not given in full), for which the total growth inhibition concentration (TGI) was determined as 0.129 µM in the experiment on ACHN renal; 0.115 µM in the experiment with CCRF-CEM leukemia; 0.282 µM in the experiment on NCI-H23 lung; 1.79 µM in the experiment on MALME-3M melanoma; 2.37 µM in the experiment with OVCAR-3 ovarian; 1.37 µM in the experiment with M14 melanoma. For the same compound, the TGI in the experiment on HT29 colon stood at 11.4 µM; with 786-0 renal, 0.163 µM; in the experiment with SF-539 CNS, 0.149 µM; in the experiment on UACC-62 melanoma it was 0.0707 µM.
For the compound `C=C1C(=O)OC2C1C(OC(=O)/C(C)=C/C)CC(O)(CCl)C1C(O)C=C(C)C21O` (stereo not given), the TGI in the experiment with ACHN renal was 18.2 µM; with CCRF-CEM leukemia, more than 36.8 µM; in the experiment with NCI-H23 lung, 28.3 µM; in the experiment with MALME-3M melanoma, 8.9 µM; with OVCAR-3 ovarian it was 27.7 µM; in the experiment on M14 melanoma, 23.8 µM. Also, the TGI in the experiment with HT29 colon stood at 31.5 µM; in the experiment with 786-0 renal, 18.4 µM; in the experiment with SF-539 CNS, 65.5 µM; in the experiment with UACC-62 melanoma it was 25.5 µM.
As for `O=C1N2Cc3c4ccc5c3CN3C(=O)N6Cc7c(ccc(c7CN1C6(c1ccccc1)C23c1ccccc1)OCCOCCOc1cc(Br)c(Br)cc1OCCOCCO4)OCCOCCOc1cc(Br)c(Br)cc1OCCOCCO5` (stereo not given), the TGI in the experiment on ACHN renal, in the experiment with CCRF-CEM leukemia, with NCI-H23 lung, in the experiment on MALME-3M melanoma, in the experiment with OVCAR-3 ovarian and in the experiment on M14 melanoma was more than 100 µM in each case. The total growth inhibition concentration (TGI) is more than 100 µM with HT29 colon, more than 100 µM in the experiment on 786-0 renal, 37.9 µM in the experiment with SF-539 CNS and more than 100 µM with UACC-62 melanoma.
For `Cc1ccc(S(=O)(=O)OCC#CCOS(=O)(=O)c2ccc(C)cc2)cc1`, the GI50 in the experiment with ACHN renal is 2.27 µM; in the experiment on CCRF-CEM leukemia, 1.96 µM; in the experiment with NCI-H23 lung it was 1.99 µM; in the experiment on MALME-3M melanoma, 1.97 µM; in the experiment on OVCAR-3 ovarian it was 1.85 µM; in the experiment with M14 melanoma, 2.59 µM. The GI50 was 1.87 µM in the experiment on HT29 colon, 2.57 µM in the experiment with 786-0 renal, 2.5 µM with SF-539 CNS and 3.96 µM in the experiment with UACC-62 melanoma. The TGI in the experiment with ACHN renal came to 5.94 µM; in the experiment with CCRF-CEM leukemia, 5.79 µM; in the experiment on NCI-H23 lung it was 5.04 µM; in the experiment on MALME-3M melanoma, 4.1 µM; with OVCAR-3 ovarian, 3.36 µM; with M14 melanoma, 7.65 µM. The total growth inhibition concentration (TGI) in the experiment with HT29 colon is 4.17 µM; in the experiment on 786-0 renal it was 7.15 µM; with SF-539 CNS, 7.01 µM; with UACC-62 melanoma, 12.6 µM.
Consider `CCc1cccc(C(C)C)c1NC(=O)CCl`, for which the TGI in the experiment with ACHN renal, in the experiment on CCRF-CEM leukemia, with NCI-H23 lung, in the experiment on MALME-3M melanoma, in the experiment on OVCAR-3 ovarian and in the experiment with M14 melanoma was more than 100 µM each time. Moreover, the TGI with HT29 colon, with 786-0 renal, with SF-539 CNS and in the experiment with UACC-62 melanoma was more than 100 µM throughout.
